Data taken from patent US11299453B2 (Universität zu Köln, priority 2017, dated 2022).

How the values were obtained:
[1] = test system: pre-purified cardiac clusters of murine αPIG-AT25 iPSCs; assay: Cell yield, flow cytometry and morphology of pre-purified miPSC cardiac clusters; assay type: cell-based
Experimental: (§1) The differentiation of transgenic mPSCs was initiated in mass cultures as briefly described below. One million cells were transferred per non-adhering 10 cm dish with 14 ml differentiation medium composed of Iscove's Modified Dulbecco's Medium (IMDM) with GlutaMAX (Life Technologies) supplemented with 20% FBS, 1×NEAA and 100 μM β-ME. Embryoid bodies (EBs) from day 2 of differentiation were transferred in a 250 ml spinner flask (CELLSPIN 250, Integra Biosciences, Fernwald, Germany) with a density of 3×10^4 EBs per 200 ml of differentiation medium. On the first 2 days of differentiation medium was supplemented with 50 μg/ml L-ascorbic acid phosphate (AA, Wako pure chemicals industry, Japan) in order to promote the development of cardiac cells. For the selection of GFP-expressing CMs, 50 ml of the medium was exchanged with fresh differentiation medium and 8 μg/ml puromycin (Life Technologies) were supplemented on day 9 of differentiation. Two days later, the cardiac clusters were transferred on non-adhering 10 cm dishes with fresh differentiation medium containing 8 μg/ml puromycin. In the further course of differentiation medium was exchanged every 2-3 days. If not otherwise specified, the purification of GFP-positive CMs with puromycin was continued until day 16 of differentiation. For single cell analyses and transfer of PSC-derived CMs on cell culture plates, cardiac clusters were dissociated with 0.25% trypsin-EDTA (Life Technologies) supplemented with 50 U/ml DNase I (AppliChem, Darmstadt, Germany) for 20-30 min at 37° C. The mPSC-derived CMs were filtered through a polyamide membrane with […] pore size (Sefar, Heiden, Switzerland). Cell numbers were determined with a Neubauer hemocytometer and cells were stored on ice until further use.
Aiming at complete elimination of remaining PSCs in PSC-derived cell aggregates, murine cardiac clusters were pre-purified with 2-4 μg/ml puromycin from day 9 until day 14 of differentiation in order to prevent complete removal of PSCs and then treated with SM6 for 2 days to assess its potential for removal of contaminating PSCs in the absence of puromycin. After treatment, cardiac clusters were dissociated with 0.25% trypsin-EDTA supplemented with 50 U/ml of DNase I and the level of PSC contamination was determined using colony formation assay, flow cytometry for SSEA-1 and RT-PCR for Oct4. […] Developing PSC colonies on MEF plates were quantified and visualized with 1% crystal violet (Fluka Analytical, St. Louis, USA) diluted in methanol (Applichem). […]
Cells were measured with an Attune acoustic focusing cytometer (Life Technologies) and data was analyzed with the Attune Cytometric software v1.2.5 (Life Technologies). Marker expression was analyzed in a gated population of 10^4 viable cells. […]

[2] = test system: αPIG-AT25 miPSC-derived cardiomyocytes; assay: Cell viability (PrestoBlue) of miPSC-derived cardiomyocytes; assay type: cell-based, murine
Experimental: as §1
Serial dilutions of DMSO stock solutions of PluriSIn #1 (Sigma-Aldrich, catalog number SML0682) or one of small molecules SM1-SM10, were prepared from 20 mM stock solutions with cell culture medium. Murine PSCs were dissociated with 0.05% trypsin-EDTA, seeded on 0.1% gelatin-coated 96-well plates with a density of 5000 cells/well and cultured in maintenance medium supplemented with 1000 U/ml of mLIF. After 1 day, cells were incubated with 40 μM PluriSIn #1 and derivatives for 72 h or with 0.01-25 μM SMs for 48 h, respectively. For treatment of corresponding PSC-derived CMs with SMs, puromycin-selected miPSC-CMs from day 14 of differentiation were dissociated with 0.25% trypsin-EDTA as described above and plated on 96-well plates (5×10^4 cells/well) which were pre-coated with 5 μg/ml fibronectin (PromoCell, Heidelberg, Germany). After culturing miPSC-CMs with 8 μg/ml puromycin for 2 more days, they were incubated in differentiation medium supplemented with 0.1-100 μM of SMs for 48-72 h. Following small molecule treatment, cell viability was determined with PrestoBlue cell viability reagent (Life Technologies). To this end, cells were washed with PBS (with calcium and magnesium, Life Technologies) and incubated with PrestoBlue reagent diluted in cell culture medium for 40 min at 37° C.
Fluorescence intensities correlating with the number of viable cells in the wells were measured in black flat-bottom 96-well plates (Greiner Bio-One, Kremsmünster, Austria) with a GeniosPro microplate reader (Tecan, Männedorf, Schweiz).
The selectivity of compounds was investigated by comparing their cytotoxicity against undifferentiated iPSCs and iPSC-derived CMs. Murine iPSCs αPIG-AT25 were incubated for 48 h with compounds SM1, SM2, SM4, SM5, SM6 and SM8 in concentrations of 0.01 to 10 μM. Cell culture and cardiac differentiation were performed as described above. Experiments were run at least in quadruplicate. The cell viability was determined using PrestoBlue cell viability reagent.
The viability of salicylic diamine-treated CMs was confirmed by 72 h of exposure to concentrations of 0.01 μM, 0.1 μM, 1 μM, 10 μM and 25 μM of compounds SM1, SM2, SM4, SM5, SM6 and SM8.

SMILES: Oc1ccccc1CN[C@@H]1CCCC[C@H]1NCc1ccccc1O [SM6, (1R,2R)-N,N′-di(2-hydroxybenzyl)-1,2-diaminocyclohexane]
- morphology and contractility of cardiac clusters ([1]; 1 μM, 5 μM and 10 μM, 48 hours): not compromised
- fraction of GFP−/cTnT− non-CMs ([1]; 10 μM, flow cytometry): 7%
- fraction of GFP+/cTnT+ CMs of the viable cell population ([1]; increasing concentrations of SM6, flow cytometry): up to 74%
- effect on the viability of cardiomyocytes ([2]; 10 μM, two day-treatment): no significant effect
- toxicity to differentiated cardiomyocytes ([2]; summary in description): not toxic

SMILES: Oc1c(CNC2CCCC[C@@H]2NCc2cccc(-c3ccccc3)c2O)cccc1-c1ccccc1 (stereo partly drawn) [SM8, (1S,2R)-N,N′-di[(2-hydroxy-3-phenyl)-benzyl]-1,2-diaminocyclohexane]
- decrease of cardiomyocyte viability, in average over SM1, SM4 and SM8 ([2]; 10 μM, 72 h of exposure): 79.79±14.72%

SMILES: COc1ccc(C[C@H](N)C(=O)N[C@H]2[C@@H](O)[C@H](n3cnc4c(N(C)C)ncnc43)O[C@@H]2CO)cc1 [puromycin, reference compound]
- reduction of total cell yield compared to DMSO-treated control ([1]; puromycin 8 μg/ml): 20.55±14.43%
